Key:
[1] = target: Hepatocyte growth factor receptor (Homo sapiens, UniProt P08581); assay: Inhibition of c-Met (unknown origin) using poly (Glu, Tyr) 4:1 substrate incubated for 30 mins by HTRF assay
[2] = target: Platelet-derived growth factor receptor beta (Homo sapiens, UniProt P09619); assay: Inhibition of PDGFRbeta (unknown origin) using poly (Glu, Tyr) 4:1 substrate incubated for 30 mins by HTRF assay
[3] = Cytotoxicity against human MKN45 cells after 72 hrs by MTT assay; settings: MKN-45, 72 h
[4] = target: Epidermal growth factor receptor (Homo sapiens, UniProt P00533); assay: Inhibition of EGFR (unknown origin) using poly (Glu, Tyr) 4:1 substrate incubated for 30 mins by HTRF assay
HT-29 = assay: Cytotoxicity against human HT-29 cells after 72 hrs by MTT assay; settings: HT-29, 72 h
[5] = target: Vascular endothelial growth factor receptor 2 (Homo sapiens, UniProt P35968); assay: Inhibition of KDR (unknown origin) using poly (Glu, Tyr) 4:1 substrate incubated for 30 mins by HTRF assay
Vascular endothelial growth factor receptor 2, sequence (P35968 whole entry): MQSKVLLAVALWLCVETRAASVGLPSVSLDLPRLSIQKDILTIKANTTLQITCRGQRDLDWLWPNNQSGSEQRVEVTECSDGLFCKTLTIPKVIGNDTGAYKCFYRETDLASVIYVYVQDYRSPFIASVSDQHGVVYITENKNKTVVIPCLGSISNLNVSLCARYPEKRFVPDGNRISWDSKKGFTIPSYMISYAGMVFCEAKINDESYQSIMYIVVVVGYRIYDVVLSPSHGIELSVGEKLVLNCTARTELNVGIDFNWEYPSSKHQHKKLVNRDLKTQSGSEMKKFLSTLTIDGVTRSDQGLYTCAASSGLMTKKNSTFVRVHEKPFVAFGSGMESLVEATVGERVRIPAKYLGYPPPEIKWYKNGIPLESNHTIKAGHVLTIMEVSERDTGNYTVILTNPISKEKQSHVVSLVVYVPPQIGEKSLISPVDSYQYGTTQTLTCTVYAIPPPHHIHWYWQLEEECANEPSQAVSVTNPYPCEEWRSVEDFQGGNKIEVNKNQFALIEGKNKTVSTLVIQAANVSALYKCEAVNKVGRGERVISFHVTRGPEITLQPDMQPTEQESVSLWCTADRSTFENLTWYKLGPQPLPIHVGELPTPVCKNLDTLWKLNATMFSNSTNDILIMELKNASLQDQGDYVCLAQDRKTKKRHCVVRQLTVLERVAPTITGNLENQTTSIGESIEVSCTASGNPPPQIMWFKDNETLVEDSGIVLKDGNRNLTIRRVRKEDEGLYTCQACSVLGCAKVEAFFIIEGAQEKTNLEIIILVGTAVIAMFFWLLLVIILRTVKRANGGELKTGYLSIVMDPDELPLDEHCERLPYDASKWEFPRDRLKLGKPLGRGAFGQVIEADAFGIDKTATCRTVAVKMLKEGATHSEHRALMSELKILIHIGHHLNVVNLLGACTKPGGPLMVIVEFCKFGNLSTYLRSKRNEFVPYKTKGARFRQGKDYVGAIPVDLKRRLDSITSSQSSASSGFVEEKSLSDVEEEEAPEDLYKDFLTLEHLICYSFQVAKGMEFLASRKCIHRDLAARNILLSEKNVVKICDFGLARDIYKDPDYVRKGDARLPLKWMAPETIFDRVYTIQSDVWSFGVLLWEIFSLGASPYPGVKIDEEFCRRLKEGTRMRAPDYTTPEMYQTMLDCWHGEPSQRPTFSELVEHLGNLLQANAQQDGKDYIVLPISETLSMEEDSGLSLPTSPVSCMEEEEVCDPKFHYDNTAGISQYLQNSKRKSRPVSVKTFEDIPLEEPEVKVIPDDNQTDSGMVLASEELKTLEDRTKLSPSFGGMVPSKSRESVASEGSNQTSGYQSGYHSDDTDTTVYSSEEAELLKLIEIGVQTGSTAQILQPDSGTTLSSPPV

[6] = target: Mast/stem cell growth factor receptor Kit (Homo sapiens, UniProt P10721); assay: Inhibition of c-Kit (unknown origin) using poly (Glu, Tyr) 4:1 substrate incubated for 30 mins by HTRF assay
Mast/stem cell growth factor receptor Kit, sequence (P10721 whole entry): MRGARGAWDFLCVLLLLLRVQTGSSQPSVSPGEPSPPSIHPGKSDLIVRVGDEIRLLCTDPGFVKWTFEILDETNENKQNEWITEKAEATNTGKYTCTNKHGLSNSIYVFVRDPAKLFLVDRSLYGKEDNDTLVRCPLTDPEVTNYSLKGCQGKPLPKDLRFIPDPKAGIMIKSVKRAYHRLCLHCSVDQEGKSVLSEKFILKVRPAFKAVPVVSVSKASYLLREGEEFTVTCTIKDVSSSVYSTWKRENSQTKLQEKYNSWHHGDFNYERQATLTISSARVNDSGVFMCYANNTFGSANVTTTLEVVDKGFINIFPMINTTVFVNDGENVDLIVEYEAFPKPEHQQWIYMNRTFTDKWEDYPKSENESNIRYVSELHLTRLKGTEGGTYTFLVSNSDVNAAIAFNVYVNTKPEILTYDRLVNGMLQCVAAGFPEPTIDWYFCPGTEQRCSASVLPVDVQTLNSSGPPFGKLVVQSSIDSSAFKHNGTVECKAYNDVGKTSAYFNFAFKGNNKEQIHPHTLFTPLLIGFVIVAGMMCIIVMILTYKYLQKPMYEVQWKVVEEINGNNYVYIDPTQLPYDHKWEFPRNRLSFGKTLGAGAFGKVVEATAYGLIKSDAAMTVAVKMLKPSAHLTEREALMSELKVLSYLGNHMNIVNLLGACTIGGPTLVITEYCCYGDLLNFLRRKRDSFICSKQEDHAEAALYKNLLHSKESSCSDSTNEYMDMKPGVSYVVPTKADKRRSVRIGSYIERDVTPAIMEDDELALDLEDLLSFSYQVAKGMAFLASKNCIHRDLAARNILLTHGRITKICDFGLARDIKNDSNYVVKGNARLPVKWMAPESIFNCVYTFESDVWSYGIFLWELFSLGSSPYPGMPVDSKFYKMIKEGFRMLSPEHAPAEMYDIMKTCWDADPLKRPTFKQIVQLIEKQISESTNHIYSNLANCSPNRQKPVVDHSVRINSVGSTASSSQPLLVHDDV

A549 = assay: Cytotoxicity against human A549 cells after 72 hrs by MTT assay; settings: A549, 72 h
[7] = Cytotoxicity against human H460 cells after 72 hrs by MTT assay; settings: NCI-H460, 72 h
[8] = Cytotoxicity against human U87MG cells after 72 hrs by MTT assay; type: functional, cell-based, U-87MG ATCC; settings: U-87 MG
[9] = target: T1, Receptor-type tyrosine-protein kinase FLT3 (Homo sapiens, UniProt P36888); assay: Inhibition of FLT3 (unknown origin) using poly (Glu, Tyr) 4:1 substrate incubated for 30 mins by HTRF assay
T1 sequence (P36888 whole entry): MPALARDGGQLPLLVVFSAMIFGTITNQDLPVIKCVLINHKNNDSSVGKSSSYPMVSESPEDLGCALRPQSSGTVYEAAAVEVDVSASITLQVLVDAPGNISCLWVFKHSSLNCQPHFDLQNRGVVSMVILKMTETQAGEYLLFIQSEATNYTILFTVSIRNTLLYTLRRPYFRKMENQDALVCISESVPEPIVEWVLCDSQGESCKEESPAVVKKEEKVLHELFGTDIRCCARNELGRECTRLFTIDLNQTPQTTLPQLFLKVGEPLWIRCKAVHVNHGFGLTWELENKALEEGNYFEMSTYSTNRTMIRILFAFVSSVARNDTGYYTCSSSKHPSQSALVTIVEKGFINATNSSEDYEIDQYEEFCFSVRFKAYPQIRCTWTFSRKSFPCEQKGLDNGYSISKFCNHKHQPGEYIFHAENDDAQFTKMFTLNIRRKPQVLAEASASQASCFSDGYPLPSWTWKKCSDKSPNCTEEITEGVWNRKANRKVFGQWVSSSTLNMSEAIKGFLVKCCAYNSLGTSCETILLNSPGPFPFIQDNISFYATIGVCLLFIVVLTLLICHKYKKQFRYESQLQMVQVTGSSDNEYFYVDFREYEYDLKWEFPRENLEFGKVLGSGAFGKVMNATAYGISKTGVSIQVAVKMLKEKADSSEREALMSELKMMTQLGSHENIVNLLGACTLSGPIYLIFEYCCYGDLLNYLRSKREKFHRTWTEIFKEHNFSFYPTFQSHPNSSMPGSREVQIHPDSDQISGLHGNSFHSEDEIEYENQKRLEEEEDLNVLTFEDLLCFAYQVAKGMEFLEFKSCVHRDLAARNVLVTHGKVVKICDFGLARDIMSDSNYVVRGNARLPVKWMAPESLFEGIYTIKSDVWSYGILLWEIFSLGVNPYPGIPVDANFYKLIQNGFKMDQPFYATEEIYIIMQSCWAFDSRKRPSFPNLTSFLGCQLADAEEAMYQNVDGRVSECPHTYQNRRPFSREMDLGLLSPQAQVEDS

Hepatocyte growth factor receptor, sequence (P08581 whole entry): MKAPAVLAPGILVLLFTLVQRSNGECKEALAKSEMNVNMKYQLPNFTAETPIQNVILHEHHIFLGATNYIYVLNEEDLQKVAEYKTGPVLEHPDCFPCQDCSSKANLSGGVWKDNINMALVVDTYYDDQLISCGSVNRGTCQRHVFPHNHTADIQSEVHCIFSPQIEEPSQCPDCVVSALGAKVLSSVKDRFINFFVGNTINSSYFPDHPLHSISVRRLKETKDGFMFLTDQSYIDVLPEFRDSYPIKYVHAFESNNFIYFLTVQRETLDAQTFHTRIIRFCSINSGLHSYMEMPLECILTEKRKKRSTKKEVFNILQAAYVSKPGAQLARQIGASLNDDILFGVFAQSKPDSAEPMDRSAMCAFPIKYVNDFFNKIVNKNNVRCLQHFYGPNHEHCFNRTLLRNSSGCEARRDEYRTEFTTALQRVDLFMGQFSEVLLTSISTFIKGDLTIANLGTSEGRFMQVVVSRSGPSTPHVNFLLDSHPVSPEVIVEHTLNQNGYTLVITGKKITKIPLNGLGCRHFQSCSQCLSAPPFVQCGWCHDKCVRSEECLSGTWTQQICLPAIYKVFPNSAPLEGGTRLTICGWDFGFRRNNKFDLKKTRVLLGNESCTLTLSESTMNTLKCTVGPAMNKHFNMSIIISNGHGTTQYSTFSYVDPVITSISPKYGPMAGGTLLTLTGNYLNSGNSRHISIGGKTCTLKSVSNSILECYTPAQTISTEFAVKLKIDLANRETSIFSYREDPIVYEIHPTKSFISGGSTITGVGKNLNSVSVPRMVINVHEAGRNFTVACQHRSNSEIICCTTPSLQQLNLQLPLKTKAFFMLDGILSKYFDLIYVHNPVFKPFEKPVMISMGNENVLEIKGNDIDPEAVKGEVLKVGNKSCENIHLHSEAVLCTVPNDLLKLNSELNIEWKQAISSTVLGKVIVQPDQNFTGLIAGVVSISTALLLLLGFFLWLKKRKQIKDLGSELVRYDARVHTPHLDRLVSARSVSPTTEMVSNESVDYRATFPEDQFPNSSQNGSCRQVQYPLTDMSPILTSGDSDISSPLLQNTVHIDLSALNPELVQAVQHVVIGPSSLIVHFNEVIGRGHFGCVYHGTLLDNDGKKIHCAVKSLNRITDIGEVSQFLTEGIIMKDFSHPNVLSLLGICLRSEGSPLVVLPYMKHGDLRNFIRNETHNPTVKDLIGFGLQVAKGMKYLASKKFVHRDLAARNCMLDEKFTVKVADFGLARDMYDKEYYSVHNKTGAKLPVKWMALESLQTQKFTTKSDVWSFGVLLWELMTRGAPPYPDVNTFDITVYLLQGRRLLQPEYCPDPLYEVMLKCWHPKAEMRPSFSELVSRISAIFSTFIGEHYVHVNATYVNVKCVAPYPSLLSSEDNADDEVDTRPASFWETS
Platelet-derived growth factor receptor beta, sequence (P09619 whole entry): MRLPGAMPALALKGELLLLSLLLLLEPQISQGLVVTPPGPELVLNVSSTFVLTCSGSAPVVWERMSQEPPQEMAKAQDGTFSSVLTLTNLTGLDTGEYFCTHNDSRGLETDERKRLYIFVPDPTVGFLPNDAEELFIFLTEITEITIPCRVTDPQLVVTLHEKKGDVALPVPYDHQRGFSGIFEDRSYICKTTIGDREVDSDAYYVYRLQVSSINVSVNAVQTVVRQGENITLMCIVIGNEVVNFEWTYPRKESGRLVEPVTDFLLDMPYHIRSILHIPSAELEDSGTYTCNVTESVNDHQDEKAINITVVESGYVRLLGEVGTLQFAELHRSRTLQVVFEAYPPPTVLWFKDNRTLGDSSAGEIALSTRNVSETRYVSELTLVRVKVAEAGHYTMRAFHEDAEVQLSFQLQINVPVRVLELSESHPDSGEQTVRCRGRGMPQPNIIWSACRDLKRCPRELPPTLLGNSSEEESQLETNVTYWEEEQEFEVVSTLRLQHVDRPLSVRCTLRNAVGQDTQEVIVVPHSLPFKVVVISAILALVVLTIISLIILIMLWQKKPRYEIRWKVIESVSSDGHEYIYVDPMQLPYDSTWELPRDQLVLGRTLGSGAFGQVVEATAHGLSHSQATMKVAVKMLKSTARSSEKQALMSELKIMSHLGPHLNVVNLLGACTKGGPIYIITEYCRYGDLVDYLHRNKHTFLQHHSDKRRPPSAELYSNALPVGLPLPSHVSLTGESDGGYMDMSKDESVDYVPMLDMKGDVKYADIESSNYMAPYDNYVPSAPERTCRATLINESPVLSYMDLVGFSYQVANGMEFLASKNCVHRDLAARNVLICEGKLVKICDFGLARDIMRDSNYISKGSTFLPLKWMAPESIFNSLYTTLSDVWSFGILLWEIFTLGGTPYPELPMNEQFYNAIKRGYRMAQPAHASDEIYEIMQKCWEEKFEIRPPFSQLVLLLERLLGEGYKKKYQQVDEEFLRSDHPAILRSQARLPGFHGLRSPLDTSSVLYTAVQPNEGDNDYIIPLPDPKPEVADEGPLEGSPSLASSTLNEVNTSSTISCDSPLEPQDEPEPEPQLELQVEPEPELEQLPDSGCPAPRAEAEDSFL

IC50 [1]: 1.04 nM | IC50 [2]: 16.3 nM | IC50 [4]: > 10000 nM | IC50 [5]: 65.4 nM | IC50 [6]: 4.02 nM | IC50 [9]: 8.78 nM
Structure (SMILES): COc1cc2c(Oc3ccc(NC(=O)c4nnn(-c5ccc(F)cc5)c4C(F)(F)F)cc3F)ccnc2cc1OCCCN1CCCC1
IC50 [3]: 21 nM | IC50 (HT-29): 120 nM | IC50 (A549): 80 nM | IC50 [7]: 150 nM | IC50 [8]: 850 nM

Source: ChEMBL document CHEMBL3352351 (Bioorg Med Chem, 2014)
